ChEMBL document CHEMBL4373629, “Dual inhibitors of LSD1 and spermine oxidase” (Medchemcomm, 2019)
pIC50: −log10 of the molar value. Active and inactive are the calls of the source. The calls are words filed in the database; no cut-off is given here.

Tests used:
[1] = biological target: T1, MAOA (amine oxidase [flavin-containing] A) (Homo sapiens, UniProt P21397); experiment: Inhibition of MAOA (unknown origin) using luminogenic substrate at 10 uM incubated for 1 hr by luminescence based assay relative to control; details: MAOA enzyme (unknown origin), probe luminogenic substrate
T1 sequence (P21397 whole entry): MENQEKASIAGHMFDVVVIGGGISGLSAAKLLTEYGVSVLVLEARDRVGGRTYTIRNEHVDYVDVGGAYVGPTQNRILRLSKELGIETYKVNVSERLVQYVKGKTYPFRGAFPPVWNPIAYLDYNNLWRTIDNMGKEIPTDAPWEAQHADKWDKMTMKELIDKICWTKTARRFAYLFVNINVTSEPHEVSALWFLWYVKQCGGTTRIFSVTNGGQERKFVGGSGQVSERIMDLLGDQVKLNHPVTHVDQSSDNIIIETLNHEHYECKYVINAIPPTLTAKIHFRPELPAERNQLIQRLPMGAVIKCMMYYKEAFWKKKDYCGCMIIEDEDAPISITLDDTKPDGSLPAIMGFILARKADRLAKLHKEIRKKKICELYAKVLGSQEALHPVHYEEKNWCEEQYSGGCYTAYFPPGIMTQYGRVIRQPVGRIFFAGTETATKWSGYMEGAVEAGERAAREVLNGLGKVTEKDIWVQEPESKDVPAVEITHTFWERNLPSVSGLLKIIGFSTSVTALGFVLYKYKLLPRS

[2] = biological target: T2, Amine oxidase [flavin-containing] A (Homo sapiens, UniProt P21397); experiment: Inhibition of MAOA (unknown origin) using luminogenic substrate incubated for 1 hr by luminescence based assay
T2 sequence (P21397 whole entry): T1 sequence (P21397 whole entry)

[3] = biological target: T3, MAOB (amine oxidase [flavin-containing] B) (Homo sapiens, UniProt P27338); experiment: Inhibition of MAOB (unknown origin) using luminogenic substrate at 10 uM incubated for 1 hr by luminescence based assay relative to control; details: MAOB enzyme (unknown origin), probe luminogenic substrate
T3 sequence (P27338 whole entry): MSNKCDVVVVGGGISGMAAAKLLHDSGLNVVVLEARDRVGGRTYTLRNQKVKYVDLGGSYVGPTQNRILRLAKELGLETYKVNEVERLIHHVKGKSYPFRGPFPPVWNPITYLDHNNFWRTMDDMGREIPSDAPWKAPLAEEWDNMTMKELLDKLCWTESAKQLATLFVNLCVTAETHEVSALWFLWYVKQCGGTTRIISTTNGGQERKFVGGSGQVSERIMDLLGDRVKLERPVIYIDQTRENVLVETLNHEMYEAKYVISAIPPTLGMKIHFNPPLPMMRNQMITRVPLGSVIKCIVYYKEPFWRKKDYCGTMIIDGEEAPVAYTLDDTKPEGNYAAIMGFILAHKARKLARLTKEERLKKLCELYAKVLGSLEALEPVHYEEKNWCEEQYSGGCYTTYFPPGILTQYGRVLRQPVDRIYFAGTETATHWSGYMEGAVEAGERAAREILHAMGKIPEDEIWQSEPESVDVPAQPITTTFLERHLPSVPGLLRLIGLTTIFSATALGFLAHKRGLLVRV

[4] = biological target: T4, Spermine oxidase (Homo sapiens, UniProt Q9NWM0); experiment: Inhibition of SMOX (unknown origin) assessed as decrease in spermidine formation using spermine as substrate at 10 uM treated with compound 2 mins prior to substrate addition followed by further incubation for 1 hr by HPLC analysis relative to control
T4 sequence (Q9NWM0 whole entry): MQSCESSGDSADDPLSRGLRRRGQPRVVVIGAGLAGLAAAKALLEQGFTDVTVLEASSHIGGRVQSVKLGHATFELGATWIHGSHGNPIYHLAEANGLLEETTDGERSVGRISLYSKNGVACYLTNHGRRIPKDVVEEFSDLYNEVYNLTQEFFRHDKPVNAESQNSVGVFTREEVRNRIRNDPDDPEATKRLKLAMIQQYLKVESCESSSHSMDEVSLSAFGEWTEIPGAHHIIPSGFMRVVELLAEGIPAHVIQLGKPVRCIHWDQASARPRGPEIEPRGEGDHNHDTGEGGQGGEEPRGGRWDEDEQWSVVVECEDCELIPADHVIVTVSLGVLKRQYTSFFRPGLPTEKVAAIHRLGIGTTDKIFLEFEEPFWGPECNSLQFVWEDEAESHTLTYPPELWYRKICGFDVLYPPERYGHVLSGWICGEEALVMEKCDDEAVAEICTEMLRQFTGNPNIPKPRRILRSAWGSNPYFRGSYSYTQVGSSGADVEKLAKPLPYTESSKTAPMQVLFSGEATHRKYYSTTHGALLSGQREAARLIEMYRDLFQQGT

[5] = biological target: T4, Spermine oxidase; experiment: Inhibition of SMOX (unknown origin) assessed as decrease in spermidine formation using spermine as substrate treated with compound 2 mins prior to substrate addition followed by further incubation for 1 hr by HPLC analysis
[6] = biological target: Peroxisomal N(1)-acetyl-spermine/spermidine oxidase (Homo sapiens, UniProt Q6QHF9); experiment: Inhibition of PAOX (unknown origin) assessed as decrease in spermidine formation using N-acetylspermine as substrate treated with compound 2 mins prior to substrate addition followed by further incubation for 1 hr by HPLC analysis
Peroxisomal N(1)-acetyl-spermine/spermidine oxidase, sequence (Q6QHF9 whole entry): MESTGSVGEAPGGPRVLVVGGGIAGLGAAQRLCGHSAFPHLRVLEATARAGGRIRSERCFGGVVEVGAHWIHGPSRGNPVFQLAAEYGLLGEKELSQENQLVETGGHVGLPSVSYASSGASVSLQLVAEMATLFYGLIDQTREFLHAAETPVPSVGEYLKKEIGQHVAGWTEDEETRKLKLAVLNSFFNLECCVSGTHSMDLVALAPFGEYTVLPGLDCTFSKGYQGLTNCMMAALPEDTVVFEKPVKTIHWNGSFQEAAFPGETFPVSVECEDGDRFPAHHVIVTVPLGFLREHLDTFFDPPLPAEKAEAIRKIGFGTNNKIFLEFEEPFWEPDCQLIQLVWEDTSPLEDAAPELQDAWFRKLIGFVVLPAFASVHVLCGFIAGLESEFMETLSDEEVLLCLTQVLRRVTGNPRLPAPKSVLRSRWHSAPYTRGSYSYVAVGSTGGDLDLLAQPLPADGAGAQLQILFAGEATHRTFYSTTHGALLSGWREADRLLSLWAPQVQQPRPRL

[7] = biological target: T5, Amine oxidase [flavin-containing] B (Homo sapiens, UniProt P27338); experiment: Inhibition of MAOB (unknown origin) using luminogenic substrate incubated for 1 hr by luminescence based assay
T5 sequence (P27338 whole entry): T3 sequence (P27338 whole entry)

[8] = test system: RAW264.7; experiment: Inhibition of reactive oxygen species formation in mouse RAW264.7 cells infected with Helicobacter pylori; format: functional, cell-based
[9] = cells; details: Homo sapiens, MIA PaCa-2, 72 h
Description: Antiproliferative activity against human MiaPaCa cells assessed as reduction in cell growth incubated for 72 hrs by MTS assay

[10] = test system: BXPC-3; experiment: cells; details: Homo sapiens, BXPC-3, 72 h
Description: Antiproliferative activity against human BxPC3 cells assessed as reduction in cell growth incubated for 72 hrs by MTS assay

[11] = biological target: LSD1/CoREST complex (Homo sapiens, UniProt O60341); experiment: Inhibition of recombinant LSD1/CoREST (unknown origin) incubated for 30 mins to 4 hrs by fluorescence based assay; format: protein-complex assay
[12] = biological target: T4, Spermine oxidase; experiment: Potency index, ratio of MDL72527 IC50 to compound IC50 for SMOX (unknown origin) using spermine as substrate treated with compound 2 mins prior to substrate addition followed by further incubation for 1 hr by HPLC analysis
[13] = test system: BXPC-3; experiment: Antiproliferative activity against human BxPC3 cells assessed as reduction in cell growth at 10 to 100 uM incubated for 72 hrs by MTS assay relative to control; format: functional

| SMILES | inhibition at 1 h, 10 µM [1] [%] | pIC50 [2] | inhibition at 1 h, 10 µM [3] [%] | inhibition [4] [%] | pIC50 [5] | pIC50 [6] | pIC50 [7] | inhibition [8] | pIC50 [9] | pIC50 [10] | pIC50 [11] | Ratio IC50 [12] | inhibition (INH) [13] [%] |
| --- | --- | --- | --- | --- | --- | --- | --- | --- | --- | --- | --- | --- | --- |
| Cc1cccc(Oc2ccccc2CNc2nc(N)n[nH]2)c1C | 0 | < 3.70 | 68.6 | 0 | < 3.70 | < 3.70 |  |  |  |  |  |  |  |
| Nc1nnc(NCc2c(Cl)cccc2Oc2ccccc2)[nH]1 | 0 | < 3.70 | 0 | 28 | 3.75 |  | < 3.70 | Active | 5.58 |  |  |  |  |
| Cc1cc(C)cc(Oc2ccccc2CNc2nc(N)n[nH]2)c1 |  | 4.04 | 83.4 | 0 | < 3.70 | < 3.70 |  |  |  |  |  |  |  |
| Nc1n[nH]c(NCc2ccccc2Oc2ccc3ccccc3c2)n1 |  | 4.10 | 81.6 | 0 | < 3.70 | < 3.70 |  |  |  |  |  |  |  |
| Nc1n[nH]c(NCc2ccccc2Oc2ccc(Br)cc2C(F)(F)F)n1 |  | 5.52 | 90.1 | 0 | 3.92 | < 3.70 |  |  | 3.70 to 4.52 | < 4.00 |  |  |  |
| C=C=CCNCCCCNCC=C=C | 0 | < 3.70 | 0 | 4.8 | 4.05 |  | < 3.70 |  |  |  | < 4.00 |  |  |
| N[C@@H]1C[C@H]1c1ccccc1.N[C@H]1C[C@@H]1c1ccccc1 |  |  |  | 0 |  |  |  |  |  |  |  |  |  |
| Nc1n[nH]c(NCc2ccccc2Oc2ccccc2)n1 |  | 4.30 | 18.8 | 0 | < 3.70 | < 3.70 |  |  |  |  |  |  |  |
| Nc1n[nH]c(NCc2c(Cl)cccc2Oc2ccc3ccccc3c2)n1 | 0 | < 3.70 | 0 | 23.6 | 3.79 |  | < 3.70 |  |  |  |  |  |  |
| Nc1n[nH]c(NCc2c(Cl)cccc2Oc2cccc3ccccc23)n1 | 0 | < 3.70 | 7.12 | 19 | 3.83 |  | < 3.70 |  | 3.70 to 4.52 | < 4.00 | 6.64 to 6.72 |  |  |
| CC(C)(C)c1ccc(Oc2ccccc2CNc2nc(N)n[nH]2)cc1 |  | 4.21 | 32.3 | 0 | < 3.70 | < 3.70 |  |  |  |  |  |  |  |
| Nc1n[nH]c(NCc2ccccc2Oc2ccc(-c3ccccc3)cc2)n1 |  | 4.30 | 26.4 | 25.7 | 4.59 | < 3.70 |  |  | 3.70 to 4.52 | 4.21 |  | 3.5 |  |
| Nc1n[nH]c(NCc2ccccc2Oc2ccc(F)cc2)n1 |  | 4.05 | 40.7 | 0 | < 3.70 | < 3.70 |  |  |  |  |  |  |  |
| Cc1ccc(C(C)C)c(Oc2ccccc2CNc2nc(N)n[nH]2)c1 |  | 4.26 | 49.7 | 13.9 | < 3.70 | < 3.70 |  |  |  |  |  |  |  |
| Nc1ccn([C@@H]2O[C@H](CO)[C@@H](O)C2(F)F)c(=O)n1 [GEMCITABINE] |  |  |  |  |  |  |  |  | 5.73 | 5.24 |  |  | 30 |
| COc1cc(OC)cc(Oc2ccccc2CNc2nc(N)n[nH]2)c1 | 0 | < 3.70 | 17.1 | 0 | < 3.70 | < 3.70 |  |  |  |  |  |  |  |
| CSc1ccc(Oc2ccccc2CNc2nc(N)n[nH]2)cc1 |  | 4.42 | 31.7 | 0 | < 3.70 | < 3.70 |  |  |  |  |  |  |  |
